In US9340590B2 (priority 2011, dated 2016):
Like-named read-outs stand apart in the source and are kept apart here. Positions of bridges follow the written chain, without caps; N, C: chain ends. Non-standard residues stand in square brackets, D forms with d. Residues, ends and D or L forms follow the SMILES beside them. Bip = N[C@@H](Cc1ccc(-c2ccccc2)cc1)C(=O)O

Experiments:
Test in all cases: cell-based
hNav1.7 = hNav1.7 (Homo sapiens, UniProt Q15858); format: cell-based; settings: read-out: IWQ Use Nav1.7
hNav1.5 = hNav1.5 (Homo sapiens, UniProt Q14524)
hNav1.3 = hNav1.3 (Homo sapiens, UniProt Q9NY46); settings: IonWorks Quattro, Use; read-out: IWQ Use Nav1.3
[1] = IonWorks Quattro, Use, read-out: IWQ Use Nav1.5
[2] = IonWorks Quattro, clamped to −110 mV, depolarized to −10 mV, 5 min after compound, n=2

hNav1.5, sequence (Q14524 whole entry, looked up): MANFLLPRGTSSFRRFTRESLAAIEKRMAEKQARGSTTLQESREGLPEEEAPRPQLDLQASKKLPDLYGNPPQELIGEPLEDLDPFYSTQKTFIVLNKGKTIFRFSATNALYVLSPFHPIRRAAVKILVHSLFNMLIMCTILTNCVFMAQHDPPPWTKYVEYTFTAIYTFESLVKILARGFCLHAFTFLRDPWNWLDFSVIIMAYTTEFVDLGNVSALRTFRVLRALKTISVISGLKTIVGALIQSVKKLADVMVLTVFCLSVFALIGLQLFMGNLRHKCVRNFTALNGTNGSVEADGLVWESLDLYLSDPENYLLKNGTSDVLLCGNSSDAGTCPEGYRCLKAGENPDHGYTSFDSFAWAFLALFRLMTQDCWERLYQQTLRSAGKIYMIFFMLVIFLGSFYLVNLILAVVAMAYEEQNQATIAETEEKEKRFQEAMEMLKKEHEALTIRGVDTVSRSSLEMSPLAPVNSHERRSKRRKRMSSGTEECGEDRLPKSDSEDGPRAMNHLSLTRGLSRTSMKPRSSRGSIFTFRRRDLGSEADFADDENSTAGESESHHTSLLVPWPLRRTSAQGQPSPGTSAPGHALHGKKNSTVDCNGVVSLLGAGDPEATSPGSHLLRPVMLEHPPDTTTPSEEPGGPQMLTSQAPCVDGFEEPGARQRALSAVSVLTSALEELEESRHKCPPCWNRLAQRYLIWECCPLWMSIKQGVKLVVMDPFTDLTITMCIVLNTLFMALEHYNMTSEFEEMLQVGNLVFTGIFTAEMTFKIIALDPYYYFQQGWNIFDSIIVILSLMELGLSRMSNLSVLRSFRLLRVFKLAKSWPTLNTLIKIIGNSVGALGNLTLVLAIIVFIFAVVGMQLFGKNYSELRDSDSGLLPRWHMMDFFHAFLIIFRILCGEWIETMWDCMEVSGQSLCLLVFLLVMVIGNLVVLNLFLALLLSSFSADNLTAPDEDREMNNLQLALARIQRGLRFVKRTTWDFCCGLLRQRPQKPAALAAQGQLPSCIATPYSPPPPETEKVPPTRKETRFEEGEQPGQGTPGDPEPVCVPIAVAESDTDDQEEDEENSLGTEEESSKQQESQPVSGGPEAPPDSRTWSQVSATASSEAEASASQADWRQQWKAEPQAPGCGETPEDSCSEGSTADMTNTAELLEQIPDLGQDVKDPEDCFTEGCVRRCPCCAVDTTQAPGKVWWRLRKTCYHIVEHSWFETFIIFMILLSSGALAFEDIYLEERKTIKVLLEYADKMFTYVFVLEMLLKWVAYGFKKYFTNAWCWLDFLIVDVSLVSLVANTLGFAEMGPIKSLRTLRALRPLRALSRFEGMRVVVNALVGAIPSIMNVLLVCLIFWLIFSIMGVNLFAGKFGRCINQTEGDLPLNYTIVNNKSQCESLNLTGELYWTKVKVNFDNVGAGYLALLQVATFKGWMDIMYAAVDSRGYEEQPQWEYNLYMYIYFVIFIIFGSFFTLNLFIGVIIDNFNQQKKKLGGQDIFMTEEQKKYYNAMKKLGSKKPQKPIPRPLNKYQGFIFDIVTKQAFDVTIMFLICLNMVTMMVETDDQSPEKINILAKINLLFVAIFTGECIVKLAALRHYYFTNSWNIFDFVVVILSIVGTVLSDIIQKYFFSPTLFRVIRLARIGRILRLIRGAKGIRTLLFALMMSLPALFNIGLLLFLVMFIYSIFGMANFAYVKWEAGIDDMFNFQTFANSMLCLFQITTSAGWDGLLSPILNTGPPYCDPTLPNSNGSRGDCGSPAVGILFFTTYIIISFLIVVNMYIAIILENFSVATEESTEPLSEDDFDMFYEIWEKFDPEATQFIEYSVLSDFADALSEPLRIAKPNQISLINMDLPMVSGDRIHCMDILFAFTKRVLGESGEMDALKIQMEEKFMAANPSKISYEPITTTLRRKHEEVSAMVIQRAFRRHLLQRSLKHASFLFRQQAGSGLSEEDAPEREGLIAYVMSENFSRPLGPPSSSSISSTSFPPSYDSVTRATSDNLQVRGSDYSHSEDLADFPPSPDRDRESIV
hNav1.7, sequence (Q15858 whole entry, looked up): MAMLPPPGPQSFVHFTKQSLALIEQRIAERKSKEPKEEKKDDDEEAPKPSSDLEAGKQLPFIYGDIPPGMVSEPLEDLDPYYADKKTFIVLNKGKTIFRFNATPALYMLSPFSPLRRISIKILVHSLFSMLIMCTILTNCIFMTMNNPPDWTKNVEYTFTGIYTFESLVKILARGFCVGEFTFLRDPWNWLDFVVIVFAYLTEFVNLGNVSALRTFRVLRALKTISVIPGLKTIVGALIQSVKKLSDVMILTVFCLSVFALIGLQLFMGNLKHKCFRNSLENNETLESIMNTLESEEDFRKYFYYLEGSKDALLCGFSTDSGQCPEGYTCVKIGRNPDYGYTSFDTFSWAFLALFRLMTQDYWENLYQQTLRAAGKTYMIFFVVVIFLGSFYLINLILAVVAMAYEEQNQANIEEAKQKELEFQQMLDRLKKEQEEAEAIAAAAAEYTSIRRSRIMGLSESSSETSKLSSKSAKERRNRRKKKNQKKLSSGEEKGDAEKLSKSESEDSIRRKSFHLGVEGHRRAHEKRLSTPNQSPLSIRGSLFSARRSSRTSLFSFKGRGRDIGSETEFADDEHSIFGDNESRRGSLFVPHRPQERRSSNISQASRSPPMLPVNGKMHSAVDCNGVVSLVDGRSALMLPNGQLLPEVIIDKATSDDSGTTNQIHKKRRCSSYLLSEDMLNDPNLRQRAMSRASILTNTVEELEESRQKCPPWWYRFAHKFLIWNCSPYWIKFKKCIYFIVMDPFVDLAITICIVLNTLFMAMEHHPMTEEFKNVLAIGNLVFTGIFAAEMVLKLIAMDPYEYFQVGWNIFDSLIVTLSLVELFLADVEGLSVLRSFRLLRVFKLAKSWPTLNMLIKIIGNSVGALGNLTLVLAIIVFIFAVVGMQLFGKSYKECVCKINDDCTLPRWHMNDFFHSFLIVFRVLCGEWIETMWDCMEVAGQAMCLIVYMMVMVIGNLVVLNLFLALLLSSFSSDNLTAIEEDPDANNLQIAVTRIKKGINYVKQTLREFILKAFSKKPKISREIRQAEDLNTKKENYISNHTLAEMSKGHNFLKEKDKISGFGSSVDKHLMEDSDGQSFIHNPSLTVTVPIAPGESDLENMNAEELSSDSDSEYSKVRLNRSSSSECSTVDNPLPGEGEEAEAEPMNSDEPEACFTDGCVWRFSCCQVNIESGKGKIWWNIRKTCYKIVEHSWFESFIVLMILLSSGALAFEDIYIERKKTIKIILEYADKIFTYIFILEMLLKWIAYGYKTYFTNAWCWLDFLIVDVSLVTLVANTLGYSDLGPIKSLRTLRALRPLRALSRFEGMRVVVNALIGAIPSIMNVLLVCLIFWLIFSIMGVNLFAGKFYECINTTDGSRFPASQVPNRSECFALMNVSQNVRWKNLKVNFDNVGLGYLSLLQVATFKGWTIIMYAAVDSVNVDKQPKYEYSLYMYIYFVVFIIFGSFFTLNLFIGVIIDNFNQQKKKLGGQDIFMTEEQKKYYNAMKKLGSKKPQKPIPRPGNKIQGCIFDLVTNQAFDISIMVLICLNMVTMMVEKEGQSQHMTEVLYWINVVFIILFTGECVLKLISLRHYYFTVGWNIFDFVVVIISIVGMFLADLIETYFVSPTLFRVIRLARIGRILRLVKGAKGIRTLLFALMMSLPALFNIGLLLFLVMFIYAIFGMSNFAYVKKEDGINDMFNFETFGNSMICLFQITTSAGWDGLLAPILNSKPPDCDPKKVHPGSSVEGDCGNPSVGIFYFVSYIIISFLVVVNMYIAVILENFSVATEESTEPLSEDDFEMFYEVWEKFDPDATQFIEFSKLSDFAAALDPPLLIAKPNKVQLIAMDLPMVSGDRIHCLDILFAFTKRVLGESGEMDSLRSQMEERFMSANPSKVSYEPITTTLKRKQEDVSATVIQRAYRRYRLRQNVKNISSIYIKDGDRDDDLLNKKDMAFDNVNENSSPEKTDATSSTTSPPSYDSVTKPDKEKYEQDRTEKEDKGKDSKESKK

CSCC[C@@H]1NC(=O)[C@H](Cc2ccccc2)NC(=O)CNC(=O)[C@H](CC(C)C)NC(=O)[C@@H](NC(=O)[C@@H](N)CC(=O)O)CSSC[C@@H]2NC(=O)[C@@H]3CSSC[C@@H](C(=O)N[C@@H](CCCCN)C(=O)N[C@@H](Cc4ccc(O)cc4)C(=O)N[C@H](C(=O)N[C@@H](Cc4ccccc4)C(N)=O)C(C)C)NC(=O)[C@H](Cc4c[nH]c5ccccc45)NC(=O)[C@H](CCCCN)NC(=O)[C@H](Cc4c[nH]cn4)NC(=O)[C@H]([C@@H](C)O)NC(=O)[C@H](CCCNC(=N)N)NC(=O)[C@H](CO)NC(=O)[C@H](CSSC[C@H](NC(=O)[C@H](CCCCN)NC(=O)[C@H](CCCNC(=N)N)NC1=O)C(=O)N[C@@H](CCSC)C(=O)N1CCC[C@H]1C(=O)N[C@@H](CC(=O)O)C(=O)N[C@@H](CC(N)=O)C(=O)N[C@@H](CC(=O)O)C(=O)N[C@@H](CCCCN)C(=O)N3)NC(=O)[C@H](C(C)C)NC(=O)[C@H](CC(C)C)NC(=O)[C@H](CC(N)=O)NC(=O)[C@@H]1CCCN1C(=O)[C@H](CCCNC(=N)N)NC2=O [compound 307] (H-DCLGFMRKCMPDNDKCCRPNLVCSRTHKWCKYVF-NH2; disulfide 2-17, 9-23, 16-30)
IC50 (hNav1.7): 90 nM
IC50 (hNav1.5; [1]): 3380 nM

CC[C@H](C)[C@@H]1NC(=O)[C@@H]2CSSC[C@@H]3NC(=O)[C@H](C(C)C)NC(=O)[C@H](CC(C)C)NC(=O)[C@H](CC(N)=O)NC(=O)[C@@H]4CCCN4C(=O)[C@H](CCCNC(=N)N)NC(=O)[C@H](CSSC[C@H](NC(=O)[C@@H](N)CC(=O)O)C(=O)N[C@@H](CC(C)C)C(=O)NCC(=O)N[C@@H](Cc4ccccc4)C(=O)N[C@@H](CCSC)C(=O)N[C@@H](CCCNC(=N)N)C(=O)N[C@@H](CCCCN)C(=O)N2)NC(=O)[C@H](CSSC[C@@H](C(=O)N[C@@H](CCCCN)C(=O)N[C@@H](Cc2ccc(O)cc2)C(=O)N[C@H](C(=O)N[C@@H](Cc2ccccc2)C(N)=O)C(C)C)NC(=O)[C@H](Cc2c[nH]c4ccccc24)NC(=O)[C@H](CC(=O)O)NC(=O)[C@H](Cc2c[nH]cn2)NC(=O)[C@H]([C@@H](C)O)NC(=O)[C@H](CCCNC(=N)N)NC(=O)[C@H](CO)NC3=O)NC(=O)[C@H](CCCCN)NC(=O)[C@H](CC(=O)O)NC(=O)[C@H](CC(N)=O)NC(=O)[C@H](CC(=O)O)NC(=O)[C@@H]2CCCN2C1=O [SEQ ID NO: 750, [Asp28]GpTx-1] (H-DCLGFMRKCIPDNDKCCRPNLVCSRTHDWCKYVF-NH2; disulfide 2-17, 9-23, 16-30)
IC50 (hNav1.7; IonWorks Quattro, use-dependent block, hNav1.7): 730 nM
IC50 (hNav1.5; read-out: IWQ Use Nav1.5): 37900 nM

CC[C@H](C)[C@@H]1NC(=O)[C@@H]2CSSC[C@@H]3NC(=O)[C@H](C(C)C)NC(=O)[C@H](CC(C)C)NC(=O)[C@H](CC(N)=O)NC(=O)[C@@H]4CCCN4C(=O)[C@H](CCCNC(=N)N)NC(=O)[C@H](CSSC[C@H](NC(=O)[C@@H](N)CC(=O)O)C(=O)N[C@@H](CC(C)C)C(=O)NCC(=O)N[C@@H](CCC(=O)O)C(=O)N[C@@H](CCSC)C(=O)N[C@@H](CCCNC(=N)N)C(=O)N[C@@H](CCCCN)C(=O)N2)NC(=O)[C@H](CSSC[C@@H](C(=O)N[C@@H](CCCCN)C(=O)N[C@@H](Cc2ccc(O)cc2)C(=O)N[C@H](C(=O)N[C@@H](Cc2ccccc2)C(N)=O)C(C)C)NC(=O)[C@H](Cc2c[nH]c4ccccc24)NC(=O)[C@H](CCCCN)NC(=O)[C@H](Cc2cnc[nH]2)NC(=O)[C@H]([C@@H](C)O)NC(=O)[C@H](CCCNC(=N)N)NC(=O)[C@H](CO)NC3=O)NC(=O)[C@H](CCCCN)NC(=O)[C@H](CC(=O)O)NC(=O)[C@H](CC(N)=O)NC(=O)[C@H](CC(=O)O)NC(=O)[C@@H]2CCCN2C1=O [SEQ ID NO: 143] (H-DCLGEMRKCIPDNDKCCRPNLVCSRTHKWCKYVF-NH2; disulfide 2-17, 9-23, 16-30)
IC50 (hNav1.7; [2]): 17700 nM
IC50 (hNav1.5; IWQ Use Nav1.5): 10000 nM

CC[C@H](C)[C@@H]1NC(=O)[C@@H]2CSSC[C@@H]3NC(=O)[C@H](C(C)C)NC(=O)[C@H](CC(C)C)NC(=O)[C@H](CC(N)=O)NC(=O)[C@@H]4CCCN4C(=O)[C@H](CCCNC(=N)N)NC(=O)[C@H](CSSC[C@H](NC(=O)[C@@H](N)CC(=O)O)C(=O)N[C@@H](CC(C)C)C(=O)NCC(=O)N[C@@H](Cc4ccccc4)C(=O)N[C@@H](CCSC)C(=O)N[C@@H](CCCNC(=N)N)C(=O)N[C@@H](CCCCN)C(=O)N2)NC(=O)[C@H](CSSC[C@@H](C(=O)N[C@@H](CCCCN)C(=O)N[C@@H](Cc2ccc(-c4ccccc4)cc2)C(=O)N[C@H](C(=O)N[C@@H](Cc2ccccc2)C(N)=O)C(C)C)NC(=O)[C@H](Cc2c[nH]c4ccccc24)NC(=O)[C@H](CCCCN)NC(=O)[C@H](Cc2c[nH]cn2)NC(=O)[C@H]([C@@H](C)O)NC(=O)[C@H](CCCNC(=N)N)NC(=O)[C@H](CO)NC3=O)NC(=O)[C@H](CCCCN)NC(=O)[C@H](CC(=O)O)NC(=O)[C@H](CC(N)=O)NC(=O)[C@H](CC(=O)O)NC(=O)[C@@H]2CCCN2C1=O [compound 376] (H-DCLGFMRKCIPDNDKCCRPNLVCSRTHKWCK[Bip]VF-NH2; disulfide 2-17, 9-23, 16-30)
IC50 (hNav1.7; Table 25, IonWorks Quattro, use, […]): 30 nM
IC50 (hNav1.5; Table 25, IonWorks Quattro, use, […], read-out: IWQ Use Nav1.5): 2900 nM

CC[C@H](C)[C@@H]1NC(=O)[C@@H]2CSSC[C@@H]3NC(=O)[C@H](C(C)C)NC(=O)[C@H](CC(C)C)NC(=O)[C@H](CC(N)=O)NC(=O)[C@@H]4CCCN4C(=O)[C@H](CCCNC(=N)N)NC(=O)[C@H](CSSC[C@H](NC(=O)[C@@H](N)CC(=O)O)C(=O)N[C@@H](CC(C)C)C(=O)NCC(=O)N[C@@H](Cc4ccccc4)C(=O)N[C@@H](Cc4ccc(I)cc4)C(=O)N[C@@H](CCCNC(=N)N)C(=O)N[C@@H](CCCCN)C(=O)N2)NC(=O)[C@H](CSSC[C@@H](C(=O)N[C@@H](CCCCN)C(=O)N[C@@H](Cc2ccc(O)cc2)C(=O)N[C@H](C(=O)N[C@@H](Cc2ccccc2)C(N)=O)C(C)C)NC(=O)[C@H](Cc2c[nH]c4ccccc24)NC(=O)[C@H](CCCCN)NC(=O)[C@H](Cc2c[nH]cn2)NC(=O)[C@H]([C@@H](C)O)NC(=O)[C@H](CCCNC(=N)N)NC(=O)[C@H](CO)NC3=O)NC(=O)[C@H](CCCCN)NC(=O)[C@H](CC(=O)O)NC(=O)[C@H](CC(N)=O)NC(=O)[C@H](CC(=O)O)NC(=O)[C@@H]2CCCN2C1=O [SEQ ID NO: 291]
IC50 (hNav1.7; [2]): 20 nM
IC50 (hNav1.5; IonWorks Quattro, clamped to −110 mV, depolarized to −10 mV, 5 min after compound, n=2, read-out: IWQ Use Nav1.5): 950 nM

CC[C@H](C)[C@@H]1NC(=O)[C@@H]2CSSC[C@@H]3NC(=O)[C@H](C(C)C)NC(=O)[C@H](CC(C)C)NC(=O)[C@H](CC(N)=O)NC(=O)[C@@H]4CCCN4C(=O)[C@H](CCCNC(=N)N)NC(=O)[C@H](CSSC[C@H](NC(=O)[C@@H](N)CC(=O)O)C(=O)N[C@@H](CC(C)C)C(=O)NCC(=O)N[C@@H](Cc4ccccc4)C(=O)N[C@@H](CCSC)C(=O)N[C@@H](CCCNC(=N)N)C(=O)N[C@@H](CCCCN)C(=O)N2)NC(=O)[C@H](CSSC[C@@H](C(=O)N[C@@H](CCCCN)C(=O)N[C@@H](Cc2ccc(O)cc2)C(=O)N[C@H](C(=O)N[C@@H](Cc2ccccc2)C(N)=O)C(C)C)NC(=O)[C@H](Cc2ccccc2)NC(=O)[C@H](CCCCN)NC(=O)[C@H](Cc2c[nH]cn2)NC(=O)[C@H]([C@@H](C)O)NC(=O)[C@H](CCCNC(=N)N)NC(=O)[C@H](CO)NC3=O)NC(=O)[C@H](CCCCN)NC(=O)[C@H](CC(=O)O)NC(=O)[C@H](CC(N)=O)NC(=O)[C@H](CC(=O)O)NC(=O)[C@@H]2CCCN2C1=O [compound 112] (H-DCLGFMRKCIPDNDKCCRPNLVCSRTHKFCKYVF-NH2; disulfide 2-17, 9-23, 16-30)
IC50 (hNav1.7; Table 24, IonWorks Quattro, use, […]): 2180 nM
IC50 (hNav1.5; Table 24, IonWorks Quattro, use, […], read-out: IWQ Use Nav1.5): 6210 nM

CC[C@H](C)[C@@H]1NC(=O)[C@@H]2CSSC[C@@H]3NC(=O)[C@H](C(C)C)NC(=O)[C@H](CC(C)C)NC(=O)[C@H](CC(N)=O)NC(=O)[C@@H]4CCCN4C(=O)[C@H](CCCNC(=N)N)NC(=O)[C@H](CSSC[C@H](NC(=O)[C@@H](N)CC(=O)O)C(=O)N[C@@H](CC(C)C)C(=O)NCC(=O)N[C@@H](Cc4ccccc4)C(=O)N[C@@H](CCSC)C(=O)N[C@@H](CCCNC(=N)N)C(=O)N[C@@H](CCCCN)C(=O)N2)NC(=O)[C@H](CSSC[C@@H](C(=O)N[C@@H](CCCCN)C(=O)N[C@@H](Cc2ccc(O)cc2)C(=O)N[C@H](C(=O)N[C@@H](Cc2ccccc2)C(N)=O)C(C)C)NC(=O)[C@H](Cc2c[nH]c4ccccc24)NC(=O)[C@H](CCCCN)NC(=O)[C@H](Cc2cnc[nH]2)NC(=O)[C@H]([C@@H](C)O)NC(=O)[C@H](CCCNC(=N)N)NC(=O)[C@H](CO)NC3=O)NC(=O)[C@H](CCCCN)NC(=O)[C@H](CC(=O)O)NC(=O)[C@H](CC(N)=O)NC(=O)[C@H](CCCNC(=N)N)NC(=O)[C@@H]2CCCN2C1=O [compound 67] (H-DCLGFMRKCIPRNDKCCRPNLVCSRTHKWCKYVF-NH2; disulfide 2-17, 9-23, 16-30)
IC50 (hNav1.3): 140 nM
IC50 (hNav1.5; [1]): 5000 nM

CC[C@H](C)[C@@H]1NC(=O)[C@@H]2CSSC[C@@H]3NC(=O)[C@H](C(C)C)NC(=O)[C@H](CC(C)C)NC(=O)[C@H](CC(N)=O)NC(=O)[C@@H]4CCCN4C(=O)[C@H](CCC(=O)O)NC(=O)[C@H](CSSC[C@H](NC(=O)[C@@H](N)CC(=O)O)C(=O)N[C@@H](CC(C)C)C(=O)NCC(=O)N[C@@H](Cc4ccccc4)C(=O)N[C@@H](CCSC)C(=O)N[C@@H](CCCNC(=N)N)C(=O)N[C@@H](CCCCN)C(=O)N2)NC(=O)[C@H](CSSC[C@@H](C(=O)N[C@@H](CCCCN)C(=O)N[C@@H](Cc2ccc(O)cc2)C(=O)N[C@H](C(=O)N[C@@H](Cc2ccccc2)C(N)=O)C(C)C)NC(=O)[C@H](Cc2c[nH]c4ccccc24)NC(=O)[C@H](CCCCN)NC(=O)[C@H](Cc2cnc[nH]2)NC(=O)[C@H]([C@@H](C)O)NC(=O)[C@H](CCCNC(=N)N)NC(=O)[C@H](CO)NC3=O)NC(=O)[C@H](CCCCN)NC(=O)[C@H](CC(=O)O)NC(=O)[C@H](CC(N)=O)NC(=O)[C@H](CC(=O)O)NC(=O)[C@@H]2CCCN2C1=O [compound 148] (H-DCLGFMRKCIPDNDKCCEPNLVCSRTHKWCKYVF-NH2; disulfide 2-17, 9-23, 16-30)
IC50 (hNav1.3): 210 nM
IC50 (hNav1.5; [1]): 14600 nM
